The source of these data is patent US20250304574A1, “3,4,6,7-TETRAHYDRO-2,7-NAPHTHYRIDINE-2(1H)-CARBOXAMIDE DERIVATIVES AS GPR65 INHIBITORS FOR THE TREATMENT OF CANCER AND AUTOIMMUNE DISEASES” (Pathios Therapeutics Limited, priority 2022, published 2025).

In general, IC50 refers to the point on the concentration scale where inhibition reaches its midpoint.

The target of the experiment is human recombinant GPR65 (Homo sapiens, UniProt Q8IYL9). Kind of experiment: Human GPR65 cAMP HTRF antagonist assay. Format: cell-based. The following applies: 1321N1 cells stably expressing human recombinant GPR65, assay pH 7.2, read-out: hGPR65 IC50. The procedure:
Human GPR65 Cyclic Adenosine Monophosphate (cAMP) Homogeneous Time Resolved Fluorescence (HTRF) Antagonist Assay Procedure
IC50 data was obtained by the following procedure:
1321N1 human astrocytoma cells stably expressing human recombinant GPR65 (1321N1-hrGPR65 cells, EuroscreenFast) were cultured according to the vendor's instructions.
Compounds were tested for their ability to antagonise GPR65, through measuring the concentration of cytoplasmic cAMP following treatment of the cells at a pH of 7.2 to activate GPR65 signalling and addition of the compound to be tested. The extent to which the expected rise in cAMP concentration upon GPR65 activation was suppressed by the added compound is indicative of its potency. The assay was carried out according to EuroscreenFast assay Methodology as follows.
On the day of the assay, test compounds were added to 384-well, low volume, white microtiter plates by acoustic dispensing. KRH buffer (5 mM KCl, 1.25 mM MgSO4, 124 mM NaCl, 25 mM HEPES, 13.3 mM Glucose, 1.25 mM KH2PO4 and 1.45 mM CaCl2) was adjusted to pH 6.5, pH 7.6 and pH 8.4 by adding NaOH. 1321N1-hGPR65 cells were rapidly thawed and diluted in KRH, pH 7.6 prior to centrifugation at 300×g for 5 min and resuspension in assay buffer (KRH, pH 7.6, supplemented with 1 mM 3-isobutyl-1-methylxanthine (IBMX) and 200 μM ethylenediaminetetraacetic acid (EDTA)). Cells were added to assay plates at a density of 2,000 cells per well in a volume of 5 μl. Assay plates were briefly centrifuged at 100×g and then incubated at room temperature for 30 min. Cells were stimulated by the addition of 5 μL KRH, pH 6.5, to achieve an assay pH of 7.2, while control wells received 5 μl KRH, pH 8.4 to achieve an assay pH of 7.9. Assay plates were briefly centrifuged at 100×g and then incubated at room temperature for 30 min.
Accumulation of cAMP was detected by cAMP HTRF kit (Cisbio). d2-labeled cAMP and cryptate-labeled anti-cAMP antibody in Lysis and Detection Buffer (Cisbio) were added to assay plates, and the plates were incubated at room temperature for 1 h. HTRF measurements were performed using a Pherastar FSX instrument. Acceptor and donor emission signals were measured at 665 nm and 620 nm, respectively, and HTRF ratios were calculated as signal665 nm/signal620nm×10^4. Data were normalised to high and low control values and fitted with 4-parameter logistic regression to determine hGPR65 IC50 values for the test compounds, which are shown in Table 1.
For orientation: Time-resolved FRET reads energy transfer from a long-lived donor to a nearby acceptor.

A value given as a limit tells only on which side of the number the result lay.

Sequence of human recombinant GPR65 (Q8IYL9 whole entry): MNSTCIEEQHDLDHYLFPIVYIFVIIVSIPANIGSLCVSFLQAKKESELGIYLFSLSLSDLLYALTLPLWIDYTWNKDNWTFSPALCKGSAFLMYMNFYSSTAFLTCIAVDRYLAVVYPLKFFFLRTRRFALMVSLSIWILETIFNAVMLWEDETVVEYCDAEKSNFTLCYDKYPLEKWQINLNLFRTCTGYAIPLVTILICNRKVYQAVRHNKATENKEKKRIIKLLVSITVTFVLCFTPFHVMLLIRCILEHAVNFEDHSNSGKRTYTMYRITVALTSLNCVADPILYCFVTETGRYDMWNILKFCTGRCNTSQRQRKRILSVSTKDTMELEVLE

On to `C[C@H]1CN(C(=O)Nc2cc(Cl)c(C(F)(F)F)cc2F)Cc2c[nH]c(=O)cc21` (single isomer, unassigned; isomer 2) [Compound 26, N-(5-chloro-2-fluoro-4-(trifluoromethyl)phenyl)-4-methyl-6-oxo-3,4,6,7-tetrahydro-2,7-naphthyridine-2(1H)-carboxamide isomer 2], for which the IC50 was under 0.5 µM.

As to `O=C(Nc1cc(Cl)c(Cl)cn1)N1CCc2c(ccnc2F)C1` [Compound 19, N-(4,5-Dichloropyridin-2-yl)-5-fluoro-3,4-dihydro-2,6-naphthyridine-2(1H)-carboxamide], the IC50 is under 0.5 µM.

Regarding `O=C(Nc1cc(C(F)(F)F)on1)N1CCc2cc(=O)[nH]cc2C1` [Compound 4, 6-Oxo-N-(5-(trifluoromethyl)isoxazol-3-yl)-3,4,6,7-tetrahydro-2,7-naphthyridine-2(1H)-carboxamide], the IC50 is under 0.5 µM.

Turning to `O=C(Nc1cc(Cl)c(Cl)cn1)N1CCc2cc(F)ncc2C1` [Compound 12, N-(4,5-Dichloropyridin-2-yl)-6-fluoro-3,4-dihydro-2,7-naphthyridine-2(1H)-carboxamide], the IC50 fell in the range of 0.5 to 5 µM.

As to `C=C1CN(C(=O)Nc2cc(Cl)c(C(F)(F)F)cc2F)Cc2ccnc(F)c21` [Compound 24, N-(5-Chloro-2-fluoro-4-(trifluoromethyl)phenyl)-5-fluoro-4-methylene-3,4-dihydro-2,6-naphthyridine-2(1H)-carboxamide], the 50% inhibitory concentration (IC50) is under 0.5 µM.
